{"source": "PubChem BioAssay (NCI)", "test_in_all_cases": "growth of human tumour cells (NCI), 48 h", "key": {"XF 498 CNS": {"tested_on": "XF 498 CNS"}, "EKVX NSCLC": {"tested_on": "EKVX NSCLC"}, "LOX IMVI melanoma": {"tested_on": "LOX IMVI melanoma"}, "HT29 colon": {"tested_on": "HT29 colon"}, "HCC-2998 colon": {"tested_on": "HCC-2998 colon"}, "DMS 114 small cell lung": {"tested_on": "DMS 114 small cell lung"}, "SK-OV-3 ovarian": {"tested_on": "SK-OV-3 ovarian"}, "IGROV1 ovarian": {"tested_on": "IGROV1 ovarian"}, "ACHN renal": {"tested_on": "ACHN renal"}, "SW-620 colon": {"tested_on": "SW-620 colon"}, "UO-31 renal": {"tested_on": "UO-31 renal"}, "SNB-19 CNS": {"tested_on": "SNB-19 CNS"}, "HOP-62 NSCLC": {"tested_on": "HOP-62 NSCLC"}, "UACC-62 melanoma": {"tested_on": "UACC-62 melanoma"}, "NCI-H460 lung": {"tested_on": "NCI-H460 lung"}, "DLD-1 colon": {"tested_on": "DLD-1 colon"}, "SK-MEL-5 melanoma": {"tested_on": "SK-MEL-5 melanoma"}, "OVCAR-3 ovarian": {"tested_on": "OVCAR-3 ovarian"}, "TK-10 renal": {"tested_on": "TK-10 renal"}, "K-562 leukemia": {"tested_on": "K-562 leukemia"}, "SF-268 CNS": {"tested_on": "SF-268 CNS"}, "SN12C renal": {"tested_on": "SN12C renal"}, "UACC-257 melanoma": {"tested_on": "UACC-257 melanoma"}, "A549 NSCLC": {"tested_on": "A549 NSCLC"}, "COLO 205 colon": {"tested_on": "COLO 205 colon"}, "SNB-75 CNS": {"tested_on": "SNB-75 CNS"}, "786-0 renal": {"tested_on": "786-0 renal"}, "HCT-116 colon": {"tested_on": "HCT-116 colon"}, "NCI-H23 lung": {"tested_on": "NCI-H23 lung"}, "HOP-18 NSCLC": {"tested_on": "HOP-18 NSCLC"}, "U251 CNS": {"tested_on": "U251 CNS"}, "RXF 393 renal": {"tested_on": "RXF 393 renal"}, "OVCAR-5 ovarian": {"tested_on": "OVCAR-5 ovarian"}, "HL-60(TB) leukemia": {"tested_on": "HL-60(TB) leukemia"}, "NCI-H522 lung": {"tested_on": "NCI-H522 lung"}, "SF-295 CNS": {"tested_on": "SF-295 CNS"}, "MALME-3M melanoma": {"tested_on": "MALME-3M melanoma"}, "HCT-15 colon": {"tested_on": "HCT-15 colon"}, "KM12 colon": {"tested_on": "KM12 colon"}, "HOP-92 NSCLC": {"tested_on": "HOP-92 NSCLC"}, "CCRF-CEM leukemia": {"tested_on": "CCRF-CEM leukemia"}, "SK-MEL-2 melanoma": {"tested_on": "SK-MEL-2 melanoma"}, "M19-MEL melanoma": {"tested_on": "M19-MEL melanoma"}, "A498 renal": {"tested_on": "A498 renal"}, "NCI-H226 lung": {"tested_on": "NCI-H226 lung"}, "SK-MEL-28 melanoma": {"tested_on": "SK-MEL-28 melanoma"}, "RPMI-8226 leukemia": {"tested_on": "RPMI-8226 leukemia"}, "OVCAR-8 ovarian": {"tested_on": "OVCAR-8 ovarian"}, "SF-539 CNS": {"tested_on": "SF-539 CNS"}, "KM20L2 colon": {"tested_on": "KM20L2 colon"}, "MOLT-4 leukemia": {"tested_on": "MOLT-4 leukemia"}}, "note": "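Briefly, cells in 96-well plates were exposed to five compound concentrations for 48 h, and endpoints were estimated by linear interpolation. TGI is the concentration that stops growth completely.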"}
{"smiles": "O=C1C(c2ccccc2)=[N+]([O-])c2cc([N+](=O)[O-])ccc21", "values": [{"measurement": "TGI", "setting": "XF 498 CNS", "value": 39.3, "unit": "µM"}, {"measurement": "TGI", "setting": "EKVX NSCLC", "value": 34.5, "unit": "µM"}, {"measurement": "TGI", "setting": "LOX IMVI melanoma", "value": 28.6, "unit": "µM"}, {"measurement": "TGI", "setting": "HT29 colon", "value": 47.9, "unit": "µM"}, {"measurement": "TGI", "setting": "HCC-2998 colon", "value": 77.4, "unit": "µM"}, {"measurement": "TGI", "setting": "DMS 114 small cell lung", "value": 27.3, "unit": "µM"}, {"measurement": "TGI", "setting": "SK-OV-3 ovarian", "value": "> 100", "unit": "µM"}, {"measurement": "TGI", "setting": "IGROV1 ovarian", "value": 53.5, "unit": "µM"}, {"measurement": "TGI", "setting": "ACHN renal", "value": 56.9, "unit": "µM"}, {"measurement": "TGI", "setting": "SW-620 colon", "value": "> 100", "unit": "µM"}, {"measurement": "TGI", "setting": "UO-31 renal", "value": "> 100", "unit": "µM"}, {"measurement": "TGI", "setting": "SNB-19 CNS", "value": "> 100", "unit": "µM"}, {"measurement": "TGI", "setting": "HOP-62 NSCLC", "value": "> 100", "unit": "µM"}, {"measurement": "TGI", "setting": "UACC-62 melanoma", "value": 26.9, "unit": "µM"}, {"measurement": "TGI", "setting": "NCI-H460 lung", "value": 56.8, "unit": "µM"}, {"measurement": "TGI", "setting": "DLD-1 colon", "value": 46.9, "unit": "µM"}, {"measurement": "TGI", "setting": "SK-MEL-5 melanoma", "value": 39.2, "unit": "µM"}, {"measurement": "TGI", "setting": "OVCAR-3 ovarian", "value": 36.8, "unit": "µM"}, {"measurement": "TGI", "setting": "TK-10 renal", "value": 52.4, "unit": "µM"}, {"measurement": "TGI", "setting": "K-562 leukemia", "value": 58.5, "unit": "µM"}, {"measurement": "TGI", "setting": "SF-268 CNS", "value": 46.9, "unit": "µM"}, {"measurement": "TGI", "setting": "SN12C renal", "value": 59.6, "unit": "µM"}, {"measurement": "TGI", "setting": "UACC-257 melanoma", "value": 40.5, "unit": "µM"}, {"measurement": "TGI", "setting": "A549 NSCLC", "value": "> 100", "unit": "µM"}, {"measurement": "TGI", "setting": "COLO 205 colon", "value": 36.9, "unit": "µM"}, {"measurement": "TGI", "setting": "SNB-75 CNS", "value": "> 100", "unit": "µM"}, {"measurement": "TGI", "setting": "786-0 renal", "value": 63.3, "unit": "µM"}, {"measurement": "TGI", "setting": "HCT-116 colon", "value": 53.4, "unit": "µM"}, {"measurement": "TGI", "setting": "NCI-H23 lung", "value": "> 100", "unit": "µM"}, {"measurement": "TGI", "setting": "HOP-18 NSCLC", "value": "> 100", "unit": "µM"}, {"measurement": "TGI", "setting": "U251 CNS", "value": "> 100", "unit": "µM"}, {"measurement": "TGI", "setting": "RXF 393 renal", "value": 34.9, "unit": "µM"}, {"measurement": "TGI", "setting": "OVCAR-5 ovarian", "value": "> 100", "unit": "µM"}, {"measurement": "TGI", "setting": "HL-60(TB) leukemia", "value": 30.1, "unit": "µM"}, {"measurement": "TGI", "setting": "NCI-H522 lung", "value": 29.1, "unit": "µM"}, {"measurement": "TGI", "setting": "SF-295 CNS", "value": "> 100", "unit": "µM"}, {"measurement": "TGI", "setting": "MALME-3M melanoma", "value": 36.1, "unit": "µM"}, {"measurement": "TGI", "setting": "HCT-15 colon", "value": 56.5, "unit": "µM"}, {"measurement": "TGI", "setting": "KM12 colon", "value": 47.5, "unit": "µM"}, {"measurement": "TGI", "setting": "HOP-92 NSCLC", "value": 64.5, "unit": "µM"}, {"measurement": "TGI", "setting": "CCRF-CEM leukemia", "value": 40.5, "unit": "µM"}, {"measurement": "TGI", "setting": "SK-MEL-2 melanoma", "value": "> 100", "unit": "µM"}, {"measurement": "TGI", "setting": "M19-MEL melanoma", "value": 32.9, "unit": "µM"}, {"measurement": "TGI", "setting": "A498 renal", "value": "> 100", "unit": "µM"}, {"measurement": "TGI", "setting": "NCI-H226 lung", "value": "> 100", "unit": "µM"}, {"measurement": "TGI", "setting": "SK-MEL-28 melanoma", "value": 48.4, "unit": "µM"}, {"measurement": "TGI", "setting": "RPMI-8226 leukemia", "value": 74, "unit": "µM"}, {"measurement": "TGI", "setting": "OVCAR-8 ovarian", "value": 32.6, "unit": "µM"}, {"measurement": "TGI", "setting": "SF-539 CNS", "value": 57.3, "unit": "µM"}, {"measurement": "TGI", "setting": "KM20L2 colon", "value": 47.3, "unit": "µM"}, {"measurement": "TGI", "setting": "MOLT-4 leukemia", "value": 51.6, "unit": "µM"}]}
